Organism: Rattus norvegicus
Assay: Open TG-GATES - Regimen: Single
Type: toxicity, organism-based, Sprague-Dawley
Set-up: regimen Single, gender Male, age 6 weeks
Conditions: in vivo, ip, 120 mg/kg, route intraperitoneal injection, dose level Middle; for APTT / Bas / Eos / Fbg / Hb / Ht / Lym / MCH / MCHC / MCV / Mono / Neu / PT / Plat / RBC / Ret / WBC: tissue Blood; for KIDNEY_L / KIDNEY_R / KIDNEY_TOTAL: tissue Kidney; for LIVER: tissue Liver; for A/G / ALP / ALT / AST / BUN / CRE / Ca / Cl / DBIL / GLC / IP / K / LDH / Na / PL / RALB / TBIL / TC / TG / TP / gamma-GTP: tissue Plasma

CC(C)=CC(=O)C=C(C)C [PHORONE]
TERMINAL_BW (3 h): 223.2 g | APTT (3 h): 16.6 s | Bas (3 h): 0% | Eos (3 h): 0.8% | Fbg (3 h): 219.8 mg/dL | Hb (3 h): 13.8 g/dL | Ht (3 h): 41% | Lym (3 h): 74.4% | MCH (3 h): 21.7 pg | MCHC (3 h): 33.5% | MCV (3 h): 64.6 fL | Mono (3 h): 8.4% | Neu (3 h): 16.2% | PT (3 h): 12.2 s | Plat (3 h): 124.2 x10_4/uL | RBC (3 h): 635.4 x10_4/ul | Ret (3 h): 8.8% | WBC (3 h): 65.2 x10_2/uL | KIDNEY_L (3 h): 1 g | KIDNEY_R (3 h): 1 g | KIDNEY_TOTAL (3 h): 2 g | LIVER (3 h): 10.2 g | A/G (3 h): 2.2 | ALP (3 h): 897.8 IU/L | ALT (3 h): 34.6 IU/L | AST (3 h): 76.2 IU/L | BUN (3 h): 15.2 mg/dL | CRE (3 h): 0.6 mg/dL | Ca (3 h): 11.2 mg/dL | Cl (3 h): 103 meq/L | DBIL (3 h): 0.038 mg/dL | GLC (3 h): 213.4 mg/dL | IP (3 h): 10.1 mg/dL | K (3 h): 5.1 meq/L | LDH (3 h): 79.8 IU/L | Na (3 h): 137.2 meq/L | PL (3 h): 132.6 mg/dL | RALB (3 h): 3.6 g/dL | TBIL (3 h): 0.6 mg/dL | TC (3 h): 79 mg/dL | TG (3 h): 50.8 mg/dL | TP (3 h): 5.3 g/dL | gamma-GTP (3 h): 1.2 IU/L | TERMINAL_BW (6 h): 221.7 g | APTT (6 h): 17.1 s | Bas (6 h): 0% | Eos (6 h): 1% | Fbg (6 h): 220.6 mg/dL | Hb (6 h): 13.7 g/dL | Ht (6 h): 41.3% | Lym (6 h): 75.6% | MCH (6 h): 21.7 pg | MCHC (6 h): 33.1% | MCV (6 h): 65.4 fL | Mono (6 h): 4.4% | Neu (6 h): 19.2% | PT (6 h): 12.2 s | Plat (6 h): 114 x10_4/uL | RBC (6 h): 633.2 x10_4/ul | Ret (6 h): 8.5% | WBC (6 h): 102.3 x10_2/uL | KIDNEY_L (6 h): 1 g | KIDNEY_R (6 h): 1 g | KIDNEY_TOTAL (6 h): 2 g | LIVER (6 h): 9.9 g | A/G (6 h): 1.9 | ALP (6 h): 687.6 IU/L | ALT (6 h): 34.4 IU/L | AST (6 h): 71 IU/L | BUN (6 h): 15 mg/dL | CRE (6 h): 0.4 mg/dL | Ca (6 h): 10.7 mg/dL | Cl (6 h): 104.2 meq/L | DBIL (6 h): 0.032 mg/dL | GLC (6 h): 194.4 mg/dL | IP (6 h): 9.5 mg/dL | K (6 h): 4.7 meq/L | LDH (6 h): 81.6 IU/L | Na (6 h): 138 meq/L | PL (6 h): 130.6 mg/dL | RALB (6 h): 3.6 g/dL | TBIL (6 h): 0.5 mg/dL | TC (6 h): 80 mg/dL | TG (6 h): 29 mg/dL | TP (6 h): 5.5 g/dL | gamma-GTP (6 h): 2 IU/L | TERMINAL_BW (9 h): 216.1 g | APTT (9 h): 16.6 s | Bas (9 h): 0% | Eos (9 h): 0.8% | Fbg (9 h): 229.2 mg/dL | Hb (9 h): 13.4 g/dL | Ht (9 h): 40.4% | Lym (9 h): 72.6% | MCH (9 h): 21.7 pg | MCHC (9 h): 33.1% | MCV (9 h): 65.5 fL | Mono (9 h): 6.6% | Neu (9 h): 20% | PT (9 h): 12.1 s | Plat (9 h): 113.6 x10_4/uL | RBC (9 h): 617.2 x10_4/ul | Ret (9 h): 8.9% | WBC (9 h): 90 x10_2/uL | KIDNEY_L (9 h): 1 g | KIDNEY_R (9 h): 1 g | KIDNEY_TOTAL (9 h): 2 g | LIVER (9 h): 8.9 g | A/G (9 h): 2.2 | ALP (9 h): 717.4 IU/L | ALT (9 h): 31 IU/L | AST (9 h): 66.8 IU/L | BUN (9 h): 11.2 mg/dL | CRE (9 h): 0.5 mg/dL | Ca (9 h): 10.7 mg/dL | Cl (9 h): 106.2 meq/L | DBIL (9 h): 0.058 mg/dL | GLC (9 h): 202.6 mg/dL | IP (9 h): 10 mg/dL | K (9 h): 4.7 meq/L | LDH (9 h): 89.8 IU/L | Na (9 h): 138.4 meq/L | PL (9 h): 128 mg/dL | RALB (9 h): 3.7 g/dL | TBIL (9 h): 0.4 mg/dL | TC (9 h): 74.2 mg/dL | TG (9 h): 43.8 mg/dL | TP (9 h): 5.4 g/dL | gamma-GTP (9 h): 1.6 IU/L | TERMINAL_BW (24 h): 229.2 g | APTT (24 h): 16.9 s | Bas (24 h): 0% | Eos (24 h): 0.8% | Fbg (24 h): 244 mg/dL | Hb (24 h): 12.9 g/dL | Ht (24 h): 39.2% | Lym (24 h): 75.4% | MCH (24 h): 21.3 pg | MCHC (24 h): 32.9% | MCV (24 h): 64.7 fL | Mono (24 h): 6.8% | Neu (24 h): 17.2% | PT (24 h): 11.7 s | Plat (24 h): 121.5 x10_4/uL | RBC (24 h): 606.2 x10_4/ul | Ret (24 h): 8.1% | WBC (24 h): 94.9 x10_2/uL | KIDNEY_L (24 h): 1.1 g | KIDNEY_R (24 h): 1.1 g | KIDNEY_TOTAL (24 h): 2.2 g | LIVER (24 h): 11.9 g | A/G (24 h): 2.1 | ALP (24 h): 860.6 IU/L | ALT (24 h): 34.4 IU/L | AST (24 h): 58.2 IU/L | BUN (24 h): 15.8 mg/dL | CRE (24 h): 0.5 mg/dL | Ca (24 h): 10.9 mg/dL | Cl (24 h): 103.6 meq/L | DBIL (24 h): 0.03 mg/dL | GLC (24 h): 194.8 mg/dL | IP (24 h): 7.7 mg/dL | K (24 h): 4.6 meq/L | LDH (24 h): 176.4 IU/L | Na (24 h): 139.2 meq/L | PL (24 h): 148 mg/dL | RALB (24 h): 3.7 g/dL | TBIL (24 h): 0.4 mg/dL | TC (24 h): 77.2 mg/dL | TG (24 h): 106.2 mg/dL | TP (24 h): 5.6 g/dL | gamma-GTP (24 h): 0.6 IU/L

From ChEMBL document CHEMBL3885861, “Open TG-GATES”
